# In patent US9267021B2 (KOSSAN SDN BHD, priority 2010, dated 2016):
# Several values for one entry are separate records, joined by “and”; a condition that tells them apart may be missing. Equal entries are not always repeated. Where two headings read alike, the source gives them in different places.
# Legend:
# [1] = Weight of individuals in the maximization test; assay type: in vivo, guinea pig
# Text: Results by Weight of Individuals
# [2] = system: guinea pig; settings: for erythema evaluation point, individual animal: group IV sensitized with DNCB; for ave. eval. (average of evaluation point) / positive ratio: positive comparison group IV sensitized with DNCB 0.1 w/v %
# Protocol: Skin-Sensitize Test (Maximization Test)
# This test is carried out by Juridical Foundation “Food and Medicine Safety Center” (Hatano-shi, Kanagawa) based on “Basic view about biological safety test necessary for petition of recognition of production (import) of medical device” (13.02.2003, Consideration of Medicine No. 0213001″ and “Reference materials regarding basic view of biological safety test” (19.03.2003, Examination of medical device No. 36).
# Using methanol extraction of Verte Kimax 7th Sense, biological safety evaluation is obtained. And aiming to compare with Verte 710N, skin-sensitize test (maximization test) is carried out on a guinea pig using methanol extraction of Verte Kimax 7th Sense.
# At the preparation of prescribing subject, methanol extract of Verte Kimax 7th Sense (hereinafter, shortened to 7th Sense-M) or methanol extract of Verte 710N (hereinafter, shortened to 710N-M) is suspended in ethanol by proportion of 1 mL to the extract obtained 1 g of analyte used for extraction, and 100 v/v % 7th Sense-M ethanol suspension and 100 v/v % 710N-M ethanol suspension are obtained. Further, BLANK obtained from methanol alone is poured into same amount of ethanol as used at the preparation of suspension of 7th Sense-M or 710N-M and 100 v/v % blank suspensions are prepared. In first skin-sensitize test, 100 v/v % 7th Sense-M ethanol suspension and 100 v/v % 710N-M ethanol suspension are replaced with same amount of olive oil, and 100 v/v % 7th Sense-M olive oil suspension and 100 v/v % 710N-M olive oil suspension are prepared. In second skin-sensitize test, 100 v/v % 7th Sense-M ethanol suspension and 100 v/v % 710N-M ethanol suspension are replaced with same amount of olive oil, and 100 v/v % 7th Sense-M olive oil suspension and 100 v/v % 710N-M olive oil suspension are prepared. In causing, 100 v/v % 7th Sense-M ethanol suspension and 100 v/v % 710N-M ethanol suspension are prepared by adding ethanol as stepwise. Further, 100 v/v % corresponding volume blank ethanol solution is used as is.
# In first skin-sensitize test (treatment first day) 10 v/v % 7th Sense-M olive oil suspension or 10 v/v % 710N-M olive oil suspension and Freund's complete adjuvant are injected by intradermal injection in upper part of shoulder bone of a guinea pig. At 7 days after treatment, 10 v/v % sodium lauryl sulfate is open spread on region including intradermal injection part, and next day (8 days after treatment) 100 v/v % 7th Sense-M olive oil suspension or 100 v/v % 710N-M olive oil suspension is blockage patched to same region as second skin-sensitize test for 48 hours. In causing (22 days after treatment), 100, 20, 4, 0.8, and 0.16 v/v % ethanol suspension of 7th Sense-M or 710N-M and 100 v/v % corresponding volume BLANK ethanol solution are blockage patched for 24 hours.
# Judgment is done according to judgment standard of Draize method after 24 hours and 48 hours from removal of patches.
# (numbers of positive animal in group/numbers of animal in group)×100
# [3] = causing conc. 0.01 w/v %, judge 24 hrs.
# [4] = causing conc. 0.01 w/v %, judge 48 hrs.
# [5] = causing conc. 0.1 w/v %, judge 24 hrs.
# [6] = causing conc. 0.1 w/v %, judge 48 hrs.
smiles,measurement,setting,value
"O=[N+]([O-])c1ccc(Cl)c([N+](=O)[O-])c1 [DNCB, 1-chloro-2,4-dinitrobenzene]",weight of individual,[1]; 8th day,472 and 420 and 444 and 453 and 440
same,"weight, group average",[1]; 8th day,446
same,weight of individual,[1]; 15th day,521 and 426 and 470 and 496 and 485
same,"weight, group average",[1]; 15th day,480
same,weight of individual,[1]; 22nd day,572 and 485 and 521 and 536 and 529
same,"weight, group average",[1]; 22nd day,529
same,weight of individual,[1]; 25th day,590 and 481 and 533 and 544 and 541
same,"weight, group average",[1]; 25th day,538
same,weight of individual,[1]; first day,430 and 375 and 396 and 416 and 395
same,"weight, group average",[1]; first day,402
same,weight of individual,[1]; starting date of previous test,356 and 333 and 354 and 369 and 344
same,"weight, group average",[1]; starting date of previous test,349
same,"erythema evaluation point, individual animal","[2]; causing 0.01 w/v % DNCB, judge time 24 hrs.",3 (4×) and 4
same,"erythema evaluation point, individual animal","[2]; causing 0.01 w/v % DNCB, judge time 48 hrs.",3 (3×) and 4 (2×)
same,"erythema evaluation point, individual animal","[2]; causing 0.1 w/v % DNCB, judge time 24 hrs.",4 (4×) and 3
same,"erythema evaluation point, individual animal","[2]; causing 0.1 w/v % DNCB, judge time 48 hrs.",4
same,ave. eval. (average of evaluation point),[2]; [3],3.8
same,positive ratio,[2]; [3],100
same,ave. eval. (average of evaluation point),[2]; [4],4.0
same,positive ratio,[2]; [4],100
same,ave. eval. (average of evaluation point),[2]; [5],4.8
same,positive ratio,[2]; [5],100
same,ave. eval. (average of evaluation point),[2]; [6],5.2
same,positive ratio,[2]; [6],100
